According to US8791132B2, “Compounds and methods for treatment of hypertension” (Medivation Technologies, Inc., priority 2011, dated 2014):
Values joined by “and” are separate entries in the source; they are usually repeats but may differ in a detail not shown here. Equal values may be shown once. Read-outs that look alike come from different tables or passages of the source. Blank lines part the entries; values can stand above or below the molecule they belong to.

How the values were obtained:
[1] = molecular target: T1, human recombinant adrenergic α2A receptor (Homo sapiens, UniProt P08913); assay: Radioligand binding, adrenergic α2A ([3H]MK-912); conditions: for Percentage inhibition of ligand binding, Adrenergic α2A / Percentage inhibition of ligand binding, Adrenergic α2A (0.1 μM): 0.1 µM
T1 construct: expressed in transfected cells; host or cells: insect Sf9 cells
T1 sequence (P08913 1-465): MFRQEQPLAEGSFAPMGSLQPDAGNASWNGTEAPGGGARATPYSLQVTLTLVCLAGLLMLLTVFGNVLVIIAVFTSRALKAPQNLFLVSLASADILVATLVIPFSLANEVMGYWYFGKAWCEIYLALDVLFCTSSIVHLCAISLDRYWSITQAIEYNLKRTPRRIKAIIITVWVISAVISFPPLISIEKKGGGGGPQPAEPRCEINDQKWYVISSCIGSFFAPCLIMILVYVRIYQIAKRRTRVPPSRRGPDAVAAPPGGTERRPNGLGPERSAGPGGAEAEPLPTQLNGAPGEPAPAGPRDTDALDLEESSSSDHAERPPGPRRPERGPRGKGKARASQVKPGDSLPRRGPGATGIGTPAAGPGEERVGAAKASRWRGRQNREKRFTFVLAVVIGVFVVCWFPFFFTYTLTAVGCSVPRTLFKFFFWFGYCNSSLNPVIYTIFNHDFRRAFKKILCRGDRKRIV
Procedure, shortened: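 In 50 mM Tris-HCl (pH 7.4) containing 12.5 mM MgCl2 and 2 mM EDTA, Sf9-expressed receptor was exposed to test compound plus 1 nM [3H]MK-912 at 25 °C for 60 min. Specific binding, corrected using 10 μM WB-4101, was quantified by filtration and counting and expressed as percent inhibition.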

[2] = molecular target: T2, human recombinant adrenergic α2B receptor (Homo sapiens, UniProt P18089); assay: Radioligand binding, adrenergic α2B ([3H]Rauwolscine); conditions: for Percentage inhibition of ligand binding, Adrenergic α2B / Percentage inhibition of ligand binding, Adrenergic α2B (0.03 μM): 0.03 µM
T2 construct: expressed in transfected cells; host or cells: CHO-K1
T2 sequence (P18089 1-450): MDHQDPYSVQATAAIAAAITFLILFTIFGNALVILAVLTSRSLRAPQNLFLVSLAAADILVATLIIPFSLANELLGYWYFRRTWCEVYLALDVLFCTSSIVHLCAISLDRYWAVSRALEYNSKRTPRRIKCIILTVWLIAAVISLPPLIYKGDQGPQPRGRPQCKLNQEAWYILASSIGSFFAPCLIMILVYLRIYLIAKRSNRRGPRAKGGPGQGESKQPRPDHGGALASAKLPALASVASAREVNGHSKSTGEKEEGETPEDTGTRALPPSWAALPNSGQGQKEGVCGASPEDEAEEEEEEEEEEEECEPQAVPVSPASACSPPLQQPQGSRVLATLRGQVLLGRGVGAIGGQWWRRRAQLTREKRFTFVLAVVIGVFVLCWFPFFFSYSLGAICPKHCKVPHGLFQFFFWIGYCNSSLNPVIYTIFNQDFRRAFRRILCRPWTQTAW
Procedure, shortened: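 Values are percent inhibition of specific radioligand binding. The receptor, expressed in CHO-K1 cells, was exposed to 2.5 nM [3H]Rauwolscine at 25° C for 60 min, with 10 μM Prazosin marking non-specific binding.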

[3] = molecular target: T3, rat adrenergic α1B receptor (Rattus norvegicus, UniProt P15823); assay: Radioligand binding, adrenergic α1B ([3H]Prazosin); conditions: for Percentage inhibition of ligand binding, Adrenergic α1B / Percentage inhibition of ligand binding, Adrenergic α1B (0.1 μM): 0.1 µM
T3 construct: rat adrenergic α1B receptor obtained from Wistar Rat liver; from tissue; host or cells: Wistar rat liver
T3 sequence (P15823 1-515): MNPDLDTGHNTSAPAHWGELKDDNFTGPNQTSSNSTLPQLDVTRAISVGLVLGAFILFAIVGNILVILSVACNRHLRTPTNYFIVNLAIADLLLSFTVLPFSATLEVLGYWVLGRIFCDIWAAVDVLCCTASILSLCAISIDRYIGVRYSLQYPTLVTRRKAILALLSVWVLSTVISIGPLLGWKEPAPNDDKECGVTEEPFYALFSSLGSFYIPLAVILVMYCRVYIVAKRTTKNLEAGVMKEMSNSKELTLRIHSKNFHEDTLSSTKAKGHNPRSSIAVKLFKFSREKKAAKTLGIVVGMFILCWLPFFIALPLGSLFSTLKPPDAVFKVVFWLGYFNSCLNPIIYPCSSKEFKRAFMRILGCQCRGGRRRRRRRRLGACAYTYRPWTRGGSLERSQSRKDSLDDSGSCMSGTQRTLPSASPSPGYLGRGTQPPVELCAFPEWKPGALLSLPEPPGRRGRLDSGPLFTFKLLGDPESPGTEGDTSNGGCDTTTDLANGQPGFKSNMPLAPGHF
Procedure, shortened: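 Filter binding with Wistar rat liver α1B preparation: test compound plus 0.25 nM [3H]prazosin, 1 h at 25° C in modified Tris-HCl buffer pH 7.4.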

[4] = compound at 0.1 μM, [3H]MK-912, repeat assays, each datapoint shown
[5] = compound at 0.03 μM, [3H]Rauwolscine, repeat assays, each datapoint shown
[6] = compound at 0.1 μM, [3H]Prazosin, repeat assays, each datapoint shown
[7] = compound at 0.1 μM, [3H]MK-912, repeat datapoints each shown
[8] = compound at 0.03 μM, [3H]Rauwolscine, repeat datapoints each shown
[9] = read-out: Percentage inhibition of ligand binding, Adrenergic α2B (0.03 μM), compound at 0.03 μM, [3H]Rauwolscine, repeat datapoints each shown
[10] = read-out: Percentage inhibition of ligand binding, Adrenergic α1B (0.1 μM), compound at 0.1 μM, [3H]Prazosin, repeat datapoints each shown
[11] = compound at 0.1 μM, [3H]Prazosin, repeat datapoints each shown
[12] = 0.1 μM compound, read-out: Percentage inhibition of ligand binding, Adrenergic α2A
[13] = 0.03 μM compound, read-out: Percentage inhibition of ligand binding, Adrenergic α2B
[14] = 0.1 μM compound, read-out: Percentage inhibition of ligand binding, Adrenergic α1B
[15] = read-out: Percentage inhibition of ligand binding, Adrenergic α2A (0.1 μM), compound at 0.1 μM, [3H]MK-912, repeat datapoints each shown

- Ki [1]: 11.9 nM
- Percentage inhibition of ligand binding, Adrenergic α2A (0.1 μM) [1, 7]: 56% and 77%
- inhibition at 0.03 µM ([1]; read-out: Percentage inhibition of ligand binding, Adrenergic α2A (0.03 μM), compound at 0.03 μM, [3H]MK-912, repeat datapoints each shown): 50%
- Percentage inhibition of ligand binding, Adrenergic α2B (0.03 μM) [2, 8]: 105%
- Ki ([2]; read-out: Ki α2B): 0.78 nM
- inhibition at 0.03 µM [2, 9]: 101%
- inhibition at 0.03 µM ([3]; read-out: Percentage inhibition of ligand binding, Adrenergic α1B (0.03 μM), compound at 0.03 μM, [3H]Prazosin, repeat datapoints each shown): 89%
- inhibition at 0.1 µM [3, 10]: 96%
Structure (SMILES): Cc1ccc2c(c1)c1c(n2CCc2ccc(C)nc2)CCN2CCCC12 (single isomer, unassigned) [197b, 9-methyl-6-[2-(6-methyl-pyridin-3-yl)-ethyl]-2,3,4,5,6,10c-hexahydro-1H-3a, 6-diaza-cyclopenta[c]fluorene]

- Percentage inhibition of ligand binding, Adrenergic α2A (0.1 μM) [1, 7]: 15%
- Percentage inhibition of ligand binding, Adrenergic α2B (0.03 μM) [2, 8]: 33%
- Percentage inhibition of ligand binding, Adrenergic α1B (0.1 μM) [3, 11]: 3%
Structure (SMILES): CC(O)(Cn1c2c(c3cc(Cl)ccc31)C1CCCN1CC2)c1cccnc1 (single isomer, unassigned) [II-130b, 1-(10-chloro-2,3,5,6-tetrahydro-1H-indolizino[7,8-b]indol-7(11cH)-yl)-2-(pyridin-3-yl)propan-2-ol]

- Percentage inhibition of ligand binding, Adrenergic α2A [1, 4]: 1%
- Percentage inhibition of ligand binding, Adrenergic α2B [2, 5]: 75%
- Percentage inhibition of ligand binding, Adrenergic α1B [3, 6]: 18%
Structure (SMILES): COc1cccc2c3c(n(CC(O)c4ccncc4)c12)CCN(C)C3 (single isomer, unassigned) [44b, 2-(6-methoxy-2-methyl-3,4-dihydro-1H-pyrido[4,3-b]indol-5(2H)-yl)-1-(pyridin-4-yl)ethanol]

- inhibition at 0.1 µM [1, 12]: 15%
- inhibition at 0.03 µM [2, 13]: 35%
- inhibition at 0.1 µM [3, 14]: 8%
Structure (SMILES): Cc1ccc2c(c1)c1c(n2CC(O)c2ccncc2)CCN(CCCO)C1 (centres unmarked) [II-75, 3-(3,4-dihydro-5-(2-hydroxy-2-(pyridin-4-yl)ethyl)-8-methyl-1H-pyrido[4,3-b]indol-2(5H)-yl)propan-1-ol]

- inhibition at 0.1 µM ([1]; compound at 0.1 μM, [3H]MK-912, repeat assays, each datapoint shown, read-out: Percentage inhibition of ligand binding, Adrenergic α2A): 1%
- Percentage inhibition of ligand binding, Adrenergic α2B [2, 5]: 28%
- inhibition at 0.1 µM ([3]; compound at 0.1 μM, [3H]Prazosin, repeat assays, each datapoint shown, read-out: Percentage inhibition of ligand binding, Adrenergic α1B): 24%
Structure (SMILES): Cc1ccc2c(c1)c1c(n2CC(O)c2ccncc2)CCNC1 (single isomer, unassigned) [39b, 2-(8-methyl-1,2,3,4-tetrahydro-pyrido[4,3-b]indol-5-yl)-1-pyridin-4-yl-ethanol]

- Percentage inhibition of ligand binding, Adrenergic α2A (0.1 μM) [1, 7]: 6%
- Percentage inhibition of ligand binding, Adrenergic α2B (0.03 μM) [2, 8]: 72%
- Percentage inhibition of ligand binding, Adrenergic α1B (0.1 μM) [3, 11]: 89%
Structure (SMILES): Cc1cnc2c(c1)c1c(n2CC(O)c2ccncc2)CCN2CCCC12 (single isomer, unassigned) [IV-209a, 2-(9-Methyl-1,2,3,4,5,10c-hexahydro-3a,6,7-triaza-cyclopenta[c]fluoren-6-yl)-1-pyridin-4-yl-ethanol]

- Percentage inhibition of ligand binding, Adrenergic α2A (0.1 μM) [1, 7]: 10%
- Percentage inhibition of ligand binding, Adrenergic α2B (0.03 μM) [2, 8]: 13%
- Percentage inhibition of ligand binding, Adrenergic α1B (0.1 μM) [3, 11]: 11%
Structure (SMILES): Cc1cnc2c(c1)c1c(n2CC(O)c2ccncc2)CCN2CCCC12 (single isomer, unassigned) [IV-209b, 2-(9-Methyl-1,2,3,4,5,10c-hexahydro-3a,6,7-triaza-cyclopenta[c]fluoren-6-yl)-1-pyridin-4-yl-ethanol]

- inhibition at 0.1 µM [1, 12]: 10%
- inhibition at 0.03 µM [2, 13]: 18%
- inhibition at 0.1 µM [3, 14]: 11%
Structure (SMILES): CCC1c2c(c3cc(C)ccc3n2CC(O)c2ccncc2)CCN1C (centres unmarked) [II-74]

- Percentage inhibition of ligand binding, Adrenergic α2A [1, 4]: −3%
- Percentage inhibition of ligand binding, Adrenergic α2B [2, 5]: 30%
- Percentage inhibition of ligand binding, Adrenergic α1B [3, 6]: 5%
Structure (SMILES): Cc1ccc2c(c1)c1c(n2CC(O)c2ccncc2)CCN2CCCCC12 (single isomer, unassigned) [47d]

The next lines start with the molecule.

Structure (SMILES): Cc1ccc2c(c1)c1c(n2CC(C)(O)c2ccc[n+]([O-])c2)CCN(C)C1 (single isomer, unassigned) [56b]
- Percentage inhibition of ligand binding, Adrenergic α2A [1, 4]: 17%
- Percentage inhibition of ligand binding, Adrenergic α2B [2, 5]: 28%
- Percentage inhibition of ligand binding, Adrenergic α1B [3, 6]: 6%

Structure (SMILES): Cc1ccc2c(c1)c1c(n2CC(O)c2ccccn2)CN(C)CC1 (single isomer, unassigned) [22a]
- Percentage inhibition of ligand binding, Adrenergic α2A [1, 4]: 16%
- inhibition at 0.03 µM ([2]; compound at 0.03 μM, [3H]Rauwolscine, repeat assays, each datapoint shown, read-out: Percentage inhibition of ligand binding, Adrenergic α2B): 22%
- Percentage inhibition of ligand binding, Adrenergic α1B [3, 6]: 19%

Structure (SMILES): Cc1ccc2c(c1)c1c(n2CC(OC(=O)C(C)C)c2ccncc2)CCN(C)C1 (single isomer, unassigned) [54b, 2-(1,2,3,4-tetrahydro-2,8-dimethylpyrido[4,3-b]indol-5-yl)-1-(pyridin-4-yl)ethyl isobutyrate]
- Percentage inhibition of ligand binding, Adrenergic α2A [1, 4]: 66%
- Percentage inhibition of ligand binding, Adrenergic α2B [2, 5]: 106%
- Percentage inhibition of ligand binding, Adrenergic α1B [3, 6]: 71%

Structure (SMILES): CN1CCc2c(c3ccc(C(F)(F)F)cc3n2CC(O)c2cccnc2)C1 (single isomer, unassigned) [40b]
- Percentage inhibition of ligand binding, Adrenergic α2A [1, 4]: 13%
- Percentage inhibition of ligand binding, Adrenergic α2B [2, 5]: 29%
- Percentage inhibition of ligand binding, Adrenergic α1B [3, 6]: −2%

Structure (SMILES): COC(=O)CC(Cn1c2c(c3cc(C)ccc31)CN(C)CC2)c1ccncc1 (centres unmarked) [II-223, 4-(2,8-dimethyl-1,2,3,4-tetrahydro-pyrido[4,3-b]indol-5-yl)-3-pyridin-4-yl-butyric acid methyl ester]
- inhibition at 0.1 µM [1, 15]: 8%
- inhibition at 0.03 µM [2, 9]: 88%
- inhibition at 0.1 µM [3, 10]: 9%

Structure (SMILES): Cc1ccc(CCn2c3c(c4c(F)ccc(F)c42)CN(C)CC3)cn1 [II-250]
- inhibition at 0.1 µM [1, 15]: 57%
- inhibition at 0.03 µM [2, 9]: 6%
- inhibition at 0.1 µM [3, 10]: -5%

Structure (SMILES): Cc1ccc2c(c1)c1c(n2CC(C)(O)c2cccnc2)CC(C)N(C)C1 (single isomer, unassigned) [II-146a, 2-(pyridin-3-yl)-1-(2,3,8-trimethyl-3,4-dihydro-1H-pyrido[4,3-b]indol-5(2H)-yl)propan-2-ol]
- Percentage inhibition of ligand binding, Adrenergic α2A (0.1 μM) [1, 7]: 47%
- Percentage inhibition of ligand binding, Adrenergic α2B (0.03 μM) [2, 8]: 102%
- inhibition at 0.1 µM [3, 10]: 23%

Structure (SMILES): Cc1ccc2c(c1)c1c(n2CC(CC(=O)N(C)C)c2ccncc2)CCN(C)C1 (centres unmarked) [II-230, 4-(2,8-dimethyl-1,2,3,4-tetrahydro-pyrido[4,3-b]indol-5-yl)-N,N-dimethyl-3-pyridin-4-yl-butyramide]
- inhibition at 0.1 µM [1, 15]: 1%
- inhibition at 0.03 µM [2, 9]: 22%
- inhibition at 0.1 µM [3, 10]: -2%
